Data from patent US20020094522A1, “Means and methods for monitoring non-nucleoside reverse transcriptase inhibitor antiretroviral therapy and guiding therapeutic decisions in the treatment of HIV/AIDS” (priority 2000, published 2002).
“Also recorded” adds a separate entry of the source.

Key:
Type in all cases: cell-based, HIV-1
[1] = tested on: RTV-964 (patient sample 98-964); assay: Phenotypic susceptibility assay, RTV-964; conditions: RTV-964, patient-derived pool
Protocol: (§1) Transfections were performed using a calcium-phosphate precipitation procedure. […] Cell lysates were assayed for luciferase activity (FIG. 3).
(§2) The drug inhibition curves are shown in (FIG. 3).
A resistance test vector was constructed as described in Example 1 from a patient sample designated 98-964. […] Isolation of viral RNA and RT/PCR was used to generate a patient derived segment that comprised viral sequence coding for all of PR and aa 1-313 of RT. The PDS was inserted into an indicator gene viral vector to generate a resistance test vector designated RTV-964. RTV-964 was then tested in a phenotypic assay to determine accurately and quantitatively the level of susceptibility to a panel of anti-retroviral drugs. […] An IC50 was determined for the resistance test vector pool for each drug tested. The pattern of susceptibility to all of the drugs tested was examined and compared to known patterns of susceptibility.

[2] = tested on: RTV-644 (patient sample 97-644 / 98-644); assay: Phenotypic susceptibility assay, RTV-644; conditions: for susceptibility/resistance compared to reference virus: RTV-644, Example 5; for fold decrease in susceptibility (IC50): RTV-644, patient-derived pool
Description: (§3) The resistance test vectors containing a functional luciferase gene cassette were constructed and host cells were transfected with the resistance test vector DNA. The resistant test vectors contained patient-derived reverse transcriptase and protease sequences that were either susceptible or resistant to the antiretroviral agents, such as nucleoside reverse transcriptase inhibitors, non-nucleoside reverse transcriptase inhibitors and protease inhibitors. The resistance test vector viral particles produced by transfecting the resistance test vector DNA into host cells, either in the presence or absence of protease inhibitors, were used to infect target host cells grown either in the absence of NRTI or NNRTI or in the presence of increasing concentrations of the drug. The amount of luciferase activity produced in infected target host cells in the presence of drug was compared to the amount of luciferase produced in infected target host cells in the absence of drug. Drug resistance was measured as the amount of drug required to inhibit by 50% the luciferase activity detected in the absence of drug (inhibitory concentration 50%, IC50). The IC50 values were determined by plotting percent drug inhibition vs. log10 drug concentration.
(§4) Host cells were seeded in 10-cm-diameter dishes and were transfected several days after plating with resistance test vector plasmid DNA and the envelope expression vector. Transfections were performed using a calcium-phosphate precipitation procedure. The cell culture media containing the DNA precipitate was replaced with fresh medium, from one to 24 hours, after transfection. Cell culture media containing resistance test vector viral particles was harvested one to four days after transfection and was passed through a […] filter before being stored at −80° C. HIV capsid protein (p24) levels in the harvested cell culture media were determined by an EIA method as described by the manufacturer (SIAC; Frederick, Md.). Before infection, target cells (293 and 293/T) were plated in cell culture media. Control infections were performed using cell culture media from mock transfections (no DNA) or transfections containing the resistance test vector plasmid DNA without the envelope expression plasmid. One to three or more days after infection the media was removed and cell lysis buffer (Promega) was added to each well. […] The inhibitory effect of the drug was determined using the following equation: […]
Isolation of viral RNA and RT/PCR was used to generate a patient derived segment that comprised viral sequences coding for all of PR and amino acids 1-313 of RT. […] An IC50 was determined for each drug tested. […]

[3] = tested on: RTV-955 (patient sample 98-955); assay: Phenotypic susceptibility assay, RTV-955; conditions: RTV-955, patient-derived pool
Protocol: as §1, §2
A resistance test vector was constructed as described in Example 1 from a patient sample designated 98-955. This patient had been previously treated with nelfinavir (a PRI) Isolation of viral RNA and RT/PCR was used to generate a patient derived segment that comprised viral sequences coding for all of PR and aa 1-313 of RT. The PDS was inserted into an indicator gene viral vector to generate a resistance test vectors designated RTV-955. RTV-955 was then tested in a phenotypic assay to determine accurately and quantitatively the level of susceptibility to a panel of anti-retroviral drugs. […] An IC50 was determined for the resistance test vector pool for each drug tested. The pattern of susceptibility to all of the drugs tested was examined and compared to known patterns of susceptibility.

[4] = tested on: RTV-757 (patient sample 98-757); assay: Phenotypic susceptibility assay, RTV-757; conditions: RTV-757, same patient after additional 8 weeks of treatment
Protocol: as §1, §2
A resistance test vector was constructed as described in Example 1 from a patient sample designated 98-1033. […] Isolation of viral RNA and RT/PCR was used to generate a patient derived segment that comprised viral sequences coding for all of PR and aa 1-313 of RT. The PDS was inserted into an indicator gene viral vector to generate resistance test vectors designated RTV-1033 and RTV-757. RTV-1033 and RTV-757 were then tested in a phenotypic assay to determine accurately and quantitatively the level of susceptibility to a panel of anti-retroviral drugs. […] An IC50 was determined for the resistance test vector pool for each drug tested. The pattern of susceptibility to all of the drugs tested was examined and compared to known patterns of susceptibility.

[5] = tested on: RTV-268 (patient sample 97-268; P236L); assay: Phenotypic susceptibility assay, RTV-268; conditions: RTV-268 / patient 268
Description: as §3, §4
where RLUluc [drug] is the relative light unit of luciferase activity in infected cells in the presence of drug and RLUluc is the Relative Light Unit of luciferase activity in infected cells in the absence of drug. IC50 values were obtained from the sigmoidal curves that were generated from the data by plotting the percent inhibition of luciferase activity vs. the log10 drug concentration.
A resistance test vector was constructed as described in Example 1 from a patient sample designated 97-268. […] Isolation of viral RNA and RT/PCR was used to generate a patient derived segment that comprised viral sequences coding for all of PR and amino acids 1-313 of RT. The patient derived segment was inserted into a indicator gene viral vector to generate a resistance test vector designated RTV-268. RTV-268 was then tested using the phenotypic susceptibility assay to determine accurately and quantitatively the level of susceptibility to a panel of anti-retroviral drugs. […] An IC50 was determined for each drug tested. Susceptibility of the patient virus to each drug was examined and compared to the susceptibility of a reference virus. […] The sample was examined further for genotypic changes associated with the pattern of susceptibility.

[6] = tested on: RTVs containing P225H plus K103N, Y181C or both (K103N+Y181C); assay: Phenotypic susceptibility assay, P225H added to K103N, Y181C or both; conditions: P225H with K103N
Protocol: as §1, §2
Resistance test vectors were constructed containing the P225H mutation alone and in combination with other known drug resistance mutations (K103N, Y181C) known to modulate the HIV susceptibility to NNRTIs. […] (Sakar G and Sommar SS (1994) Biotechniques 8(4), 404-407). […] The pattern of phenotypic susceptibility to the NNRTI, delavirdine in the P225H-RTV was altered as compared to wild type.

SMILES	fold decrease in susceptibility (IC50) [1]	susceptibility/resistance compared to reference virus [2]	fold decrease in susceptibility (IC50) [2]	fold decrease in susceptibility (IC50) [3]	fold decrease in susceptibility (IC50) [4]	susceptibility/resistance compared to reference virus [5]	change in susceptibility compared to the corresponding RTV lacking P225H [6]
Cc1ccnc2c1NC(=O)c1cccnc1N2C1CC1 [nevirapine]	750 fold	resistant to nevirapine	600 fold	530 fold	greater than 800 fold	no change in nevirapine susceptibility; also recorded: nevirapine susceptibility was the same as wild type	did not significantly change nevirapine susceptibility
CC(C)Nc1cccnc1N1CCN(C(=O)c2cc3cc(NS(C)(=O)=O)ccc3[nH]2)CC1 [delavirdine]	10 fold	little or no resistance to delavirdine	2.5 fold	4 fold	10 fold	resistant to delavirdine; also recorded: phenotypic resistance to delavirdine	more susceptible to inhibition by delavirdine if the P225H mutation was present
